Experimental data taken from publication doi:10.1101/2021.12.13.472376v1 (bioRxiv, 2021).

Tests used:
GBM = GBM patients treated with radiotherapy combined with TMZ; ref Stupp et al., 2005; cited from earlier work
[1] = Water solubility / dissolution of the peptide; format: physicochemical

| Compound | median survival (GBM) [months] | water solubility [1] | dissolution of 1 mg peptide in 1000 μL 10% DMSO DPBS ([1]; 1 mg in 1000 μL 10% DMSO DPBS, only a mixture with loose precipitation obtained) | dissolution of 1 mg peptide in 200 μL normal saline or DPBS ([1]; 1 mg in 200 μL normal saline or DPBS) |
| --- | --- | --- | --- | --- |
| Cn1nnc2c(C(N)=O)ncn2c1=O [TMZ] | 14.6 | – | – | – |
| RQIKIWFQNRRMKWGGTALDWSWLQTE [NBD] | – | poor | could not completely dissolve | – |
| YLGASVPSPDPLEPTGGTALDWSWLQTE [MTL-NBD] | – | good | – | completely dissolve |
